Laboratory results from ChEMBL document CHEMBL1132674, “Design, synthesis and DNA-cleavage of Gly-Gly-His-naphthalene diimide conjugates” (Bioorg Med Chem Lett, 1999).

Test: Binding constant of the compound

| Compound | Binding constant [M⁻¹] |
| --- | --- |
| CN(CCCNC(=O)C(Cc1c[nH]cn1)NC(=O)CNC(=O)CN)CCCN1C(=O)c2ccc3c4c(ccc(c24)C1=O)C(=O)N(CCCN(C)CCCNC(=O)C(Cc1c[nH]cn1)NC(=O)CNC(=O)CN)C3=O (configuration not stated) | 100000 |
| CN(CCCN)CCCN1C(=O)c2ccc3c4c(ccc(c24)C1=O)C(=O)N(CCCN(C)CCCNC(=O)C(Cc1c[nH]cn1)NC(=O)CNC(=O)CN)C3=O (configuration not stated) | 100000 |
